Data taken from patent publication US20160122387A1, “Angiotensin Peptide and Pharmaceutical Compositions for Disease Treatment” (UNIVERSIDADE FEDERAL DE MINAS GERAIS - UFMG, priority 2012, published 2016).

Tests used:
[1] = test system: thoracic aortic rings of normotensive Wistar rats; assay: Vasorelaxation in thoracic aortic rings of normotensive Wistar rats pre-contracted with phenylephrine; design: species or system rat; settings: aortic rings of Wistar and SHR rats (FIGS. 2A and 2B)
Description: (§1) Three- to four-mm rings of the descending thoracic aorta, free from adipose and connective tissue, were maintained in a gasified solution (95% 02 and 5% CO2) of Krebs-Henseleit, at 37° C. under 1.0 g tension, 1 hour for stabilization. The presence of functional endothelium was assessed by the ability of acetylcholine [ACh] (10 μmol/L) to induce more than 70% relaxation of vessels pre-contracted with phenylephrine (Phe) ([…]). The mechanical activity, recorded isometrically by a force transducer, was fed into a recorder-amplifier and a computer equipped with an analog-digital converter board, using CVMS data acquisition/recording software.
(§2) The vessels from normotensive Wistar rats and spontaneously hypertensive rats (SHR) were pre-contracted in the same voltage level (approximately 1.0 g tension) at the submaximal concentration of phenylephrine ([…]). Arg0-Ang-(1-7) and Ang-(1-7) were added in increasing cumulative concentrations as the response to phenylephrine was stabilized. Results are presented as mean±SEM. One-way analysis of variance (ANOVA) with Newman-Keuls post test of multiple comparisons was used to compare the concentration response curves obtained in the aortic rings. The vasodilatation effect of arg0-Ang-(1-7) and Ang-(1-7) was expressed as the percentage of decrease in peak concentration induced by phenylephrine. […]

[2] = test system: thoracic aortic rings of spontaneously hypertensive rats (SHR); assay: Vasorelaxation in thoracic aortic rings of spontaneously hypertensive rats (SHR) pre-contracted with phenylephrine; design: species or system rat; settings: percentage of decrease of phenylephrine contraction
Description: as §1, §2

[3] = test system: awake Wistar rats; assay: Acute IV bolus administration, MAP and HR in awake Wistar rats; format: in vivo, rat; settings: IV bolus 0.5 nmol/kg
Description: Wistar and SHR rats were anesthetized with 2.5% tribromoethanol, intraperitoneally (1 mL/100 g). For femoral artery cannulation, cannulas made by connecting 15 cm polyethylene PESO to 4 cm of PE10 polyethylene were used, filled with saline solution (NaCl 0.9%) and heparin (100 IU/0.1 mL). After the animal was placed supine on the operating table, a trichotomy of the right inguinal region of the animal was performed. A small skin incision was made; the femoral neurovascular bundle was located and the femoral artery isolated. The cannula was introduced into the abdominal aorta through the femoral artery and was used for obtaining the cardiovascular parameters. […] The values of mean arterial pressure (MAP) and heart rate (HR) were calculated from PA pulses and recorded by the data acquisition system (BIOPAC System, Model MP150). The pulsatile arterial pressure (PAP) was recorded by a signal sent to a transducer connected to the cannula inserted into the abdominal aorta via the femoral artery. […] Through the card reader software, AcqKnowledge v.3.5.7 (Biopac System), PAP was continuously recorded with a sampling frequency of 2000-4000 Hz. […] After injection of the peptide or saline, cardiovascular parameters were continuously monitored for a period of 5 hours. […]

[4] = test system: protein kinase B (AKT); assay: Activation (Ser473 phosphorylation) of AKT in neonatal rat cardiomyocytes, Western blot; format: cell-based; settings: cardiomyocyte cells, 10^−9 mol/L, five minutes
Description: Wistar neonatal rat cardiomyocytes were cultured in regular growth medium consisting of DEMEM medium supplemented with 10% horse serum, 5% fetal bovine serum, 1% penicillin/streptomycin and 0.1% fibroblast inhibitor. The cells were maintained in serum free medium for three hours before the start of treatment. The study was carried out acutely, for five minutes using a concentration of 10^−9 mol/L of the following drugs diluted in culture medium: Ang-(1-7), arg0-Ang-(1-7) and insulin. Cells incubated with culture medium only were used as control group.
Total protein was isolated from cardiomyocytes cells with lysis buffer containing protease inhibitors cocktail (Days-Peixoto et al., Hypertension 52: 542-548, 2008). Sixty micrograms of total protein was separated by electrophoresis, transferred to a nitrocellulose membrane, blocked with 5% skimmed milk powder diluted in Tris-saline containing 0.1% Tween, and finally incubated overnight with anti-AKT polyclonal antibody (1:1000), anti-Ser473 phospho-Akt (1:600), anti-glyceraldehyde-3-phosphate dehydrogenase (GAPDH—1:1000). Subsequently, the membranes were incubated with fluorescently labeled secondary antibody (1:10000), followed by identification and quantitation by the Odyssey program (LI-COR).
The results are presented as mean+E.PM. […]

Substance: Asp-Arg-Val-Tyr-Ile-His-Pro [Ang-(1-7)]
- endothelium dependence of the vasorelaxant effect [1]: endothelium-dependent
- Emax of vasorelaxation [2]: 30±3%
- change in HR [3]: failed to induce significant changes
- change in MAP [3]: failed to induce significant changes
- activation of protein kinase B (AKT) [4]: triggered the activation of protein kinase B (AKT)
